{"source": "patent US10495642B2", "about": "“Inhibitors of proteins specific for the secretome of a chondrocyte for use in the treatment of breast cancer metastasis” (ALBERT-LUDWIGS-UNIVERSITÄT FREIBURG, priority 2013, dated 2019)", "key": {"[1]": {"tested_on": "human pancreatic cancer, malignant melanoma, papillary thyroid cancer, breast cancer, colon cancer, and prostate cancer cells", "conditions": "human cancer cells with high basal TLR3 and Wnt5a; cited from earlier work"}, "4T1 cells": {"tested_on": "4T1 cells", "conditions": "cited from earlier work"}, "[2]": {"tested_on": "MCF-7 and MDA-MB-231 as well as 4T1 cancer cell lines", "conditions": "addition of CXCL5, cited from earlier work"}, "[3]": {"target": "T1, recombinant human CXCL5/ENA-78 (Homo sapiens, UniProt P42830)", "T1 sequence (P42830 37-114)": "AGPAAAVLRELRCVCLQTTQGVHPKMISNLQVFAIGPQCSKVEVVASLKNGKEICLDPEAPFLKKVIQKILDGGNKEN", "assay": "Phage display identification of CXCL5 binding peptides", "conditions": "region of CXCL5 of FIGS. 7 and 8", "text": "Phage display: 12 amino acid binding peptides towards CXCL5 were identified using a commercial phage display system from […]."}, "MDA-MB-231 cells": {"tested_on": "MDA-MB-231 cells", "assay": "Transwell migration of MDA-MB-231 cells towards chondrocyte conditioned media", "assay_type": "cell-based, human", "conditions": "chondrocyte conditioned media as chemoattractant", "method": "Cell differentiation: Primary human monocytes, articular chondrocytes, and adipose tissue derived stromal cells were isolated from healthy donors and differentiated into osteoclasts (OC), articular chondrocytes (AC) and osteoblasts (OB) respectively. Cell lines: MDA-MB-231 (MDA), a metastatic, and MCF7A, an epithelial like breast cancer cell line, were used in this study.\nSerum free conditioned media: After differentiation, cells were washed 2 times with PBS and incubated with DMEM for 24 hours. After 24 hours, conditioned media was harvested and passed through a 0.45 μm filter.\nMigration: MDA-MB-231 cells were serum-starved for 24 hours before testing of the migration. Migration media was plated in the bottom of the well and a transwell insert (8 μm pores) was placed on top. 25.000 cells were seed on top of the filter. After 15 hours, the filters were washed and non-migrated cells were removed. Migrated cells were stained with H&E and counted under a microscope. Numbers were obtained as the average number of 5 random fields per filter."}}, "data": [{"molecule": "Cn1c(-c2ccccc2)c[nH]c1=S", "note": "[Peptide C10, 5-phenylmethimazole]", "values": [{"measurement": "cell growth and migration", "setting": "[1]", "value": "suppression of cell growth and migration"}]}, {"molecule": "CXCL5: small cytokine of the CXC chemokine family, epithelial-derived neutrophil-activating peptide 78", "values": [{"measurement": "tumor nodules in livers, lungs and intestines versus control group", "setting": "4T1 cells; 4T1 mouse model", "value": "more numerous and larger"}, {"measurement": "metastasis of 4T1 cells in mice", "setting": "4T1 cells; CXCL5 0.5 mg/kg", "value": "increased the metastasis"}, {"measurement": "migration and invasiveness", "setting": "[2]; MCF-7, MDA-MB-231 and 4T1 cancer cell lines", "value": "enhance the migration and invasiveness"}, {"measurement": "cell proliferation", "setting": "[2]; MCF-7 or MDA-MB-231 cancer cells", "value": "did not increase cell proliferation"}]}, {"molecule": "H-Pro-Val-Trp-Ala-his-leu-Asn-Pro-Pro-Trp-Leu-Ala-NH2 [Peptide 1]", "values": [{"measurement": "binding to the pocket region of CXCL5", "setting": "[3]", "value": "bind to said region"}, {"measurement": "migration of MDA-MB-231 cells in the presence of the chondrocyte secretome", "setting": "MDA-MB-231 cells", "value": "reduces migration"}]}, {"molecule": "H-IGKVDSNSVSHA-NH2 [Peptide 2]", "values": [{"measurement": "binding to the pocket region of CXCL5", "setting": "[3]", "value": "bind to said region"}, {"measurement": "migration of MDA-MB-231 cells in the presence of the chondrocyte secretome", "setting": "MDA-MB-231 cells", "value": "reduces migration"}]}]}
